# Values quoted from earlier work as cited in patent publication US7381426B2, “Targeted delivery of bioactive factors to the systemic skeleton” (Southwest Research Institute, priority 2002, dated 2008).
# System: hindlimb unloading in rats
# Details: infusion 2 μg/kg/day, hindlimb unloaded rats
substance,measurement,value
TGF-β,effect on unloading-induced bone changes,"corrects the decrease in bone mass, calcium content, osteoblast number and mineralization rate"
